Source: ChEMBL document CHEMBL3085700 (J Med Chem, 2013)
pIC50: −log10 of the molar value. Activity calls are given as the source filed them. The rule behind the calls is not given here.

Tests used:
[1] = molecular target: T1, Fatty-acid amide hydrolase 1 (Mus musculus) (UniProt O08914); settings: Brain, Membrane, 10 uM
T1 sequence (whole entry): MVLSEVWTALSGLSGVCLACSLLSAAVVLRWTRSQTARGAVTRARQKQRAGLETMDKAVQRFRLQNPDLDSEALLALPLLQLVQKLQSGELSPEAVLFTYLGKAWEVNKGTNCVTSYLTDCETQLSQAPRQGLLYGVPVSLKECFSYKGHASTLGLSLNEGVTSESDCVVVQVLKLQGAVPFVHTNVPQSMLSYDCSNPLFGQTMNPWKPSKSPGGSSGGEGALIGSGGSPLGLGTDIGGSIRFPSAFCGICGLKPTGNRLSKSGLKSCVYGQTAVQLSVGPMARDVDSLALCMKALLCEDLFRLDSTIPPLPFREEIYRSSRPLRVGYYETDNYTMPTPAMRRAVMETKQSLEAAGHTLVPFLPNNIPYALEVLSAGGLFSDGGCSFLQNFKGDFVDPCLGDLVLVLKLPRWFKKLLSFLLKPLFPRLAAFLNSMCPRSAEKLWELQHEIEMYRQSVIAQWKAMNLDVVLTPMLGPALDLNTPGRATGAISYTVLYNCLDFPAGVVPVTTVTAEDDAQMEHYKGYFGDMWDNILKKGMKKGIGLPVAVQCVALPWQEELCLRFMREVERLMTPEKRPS
Description: Inhibition of TAMRA-FP-labeled FAAH in mouse brain membrane at 10 uM after 1 hr by fluorescent gel scanning assay

[2] = molecular target: T2, Fatty-acid amide hydrolase 1 (Rattus norvegicus) (UniProt P97612); assay: Inhibition of FAAH in rat RBL2H3 cells assessed as blockade of [3H]-anandamide uptake at 0.1 uM incubated for 15 mins prior to [3H]-anandamide addition measured after 10 mins by scintillation spectroscopic analysis; type: cell-based; settings: RBL-2H3
T2 sequence (whole entry): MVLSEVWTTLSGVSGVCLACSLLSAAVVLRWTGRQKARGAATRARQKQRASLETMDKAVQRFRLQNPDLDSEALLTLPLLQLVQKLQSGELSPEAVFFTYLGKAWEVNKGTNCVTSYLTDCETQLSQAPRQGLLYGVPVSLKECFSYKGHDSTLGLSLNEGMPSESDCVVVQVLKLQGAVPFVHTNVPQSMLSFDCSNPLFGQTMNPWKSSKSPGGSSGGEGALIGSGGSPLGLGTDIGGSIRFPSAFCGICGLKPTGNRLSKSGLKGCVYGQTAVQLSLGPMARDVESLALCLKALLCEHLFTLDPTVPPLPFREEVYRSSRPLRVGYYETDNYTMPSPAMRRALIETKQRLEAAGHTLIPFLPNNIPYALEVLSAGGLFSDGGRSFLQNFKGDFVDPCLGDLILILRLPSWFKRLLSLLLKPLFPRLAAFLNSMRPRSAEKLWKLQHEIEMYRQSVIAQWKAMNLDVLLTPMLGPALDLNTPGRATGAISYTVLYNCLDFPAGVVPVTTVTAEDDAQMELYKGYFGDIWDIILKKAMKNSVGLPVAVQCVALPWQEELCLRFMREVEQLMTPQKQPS

[3] = molecular target: T3, Fatty-acid amide hydrolase 1 (Homo sapiens, UniProt O00519); assay: Inhibition of human recombinant FAAH overexpressed in African green monkey COS7 cells using [3H]-anandamide as substrate preincubated for 10 mins before substrate addition measured after 10 mins by liquid scintillation counting analysis; type: cell-based, COS-7
T3 sequence (O00519 whole entry): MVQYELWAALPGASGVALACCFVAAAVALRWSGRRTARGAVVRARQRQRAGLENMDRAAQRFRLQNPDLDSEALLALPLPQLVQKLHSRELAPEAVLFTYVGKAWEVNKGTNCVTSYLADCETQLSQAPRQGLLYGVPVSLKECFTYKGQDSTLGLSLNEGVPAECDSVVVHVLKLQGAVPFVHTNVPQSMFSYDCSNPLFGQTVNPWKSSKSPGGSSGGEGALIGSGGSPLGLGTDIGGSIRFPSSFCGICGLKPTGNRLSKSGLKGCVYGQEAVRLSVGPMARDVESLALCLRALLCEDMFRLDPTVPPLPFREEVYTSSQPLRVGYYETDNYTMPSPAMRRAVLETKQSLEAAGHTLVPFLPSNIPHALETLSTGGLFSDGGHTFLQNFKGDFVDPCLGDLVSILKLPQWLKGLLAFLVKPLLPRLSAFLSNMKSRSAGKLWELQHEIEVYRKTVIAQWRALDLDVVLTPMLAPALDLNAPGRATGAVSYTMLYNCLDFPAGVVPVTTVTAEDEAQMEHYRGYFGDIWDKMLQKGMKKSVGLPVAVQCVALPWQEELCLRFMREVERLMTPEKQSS

[4] = molecular target: T4, Fatty-acid amide hydrolase 1 (Homo sapiens) (UniProt O00519); assay: Reversible inhibition of human recombinant FAAH overexpressed in African green monkey COS7 cells using […] as substrate assessed as recovery of enzyme activity at 20 x IC50 preincubated for 60 mins followed by 500 fold dilution measured after 10 mins by HPLC analysis; type: cell-based; settings: COS-7
T4 sequence (whole entry): T3 sequence (O00519 whole entry)

[5] = molecular target: T4, Fatty-acid amide hydrolase 1 (Homo sapiens); assay: Inhibition of human recombinant FAAH overexpressed in African green monkey COS7 cells using [3H]-anandamide as substrate at 300 uM preincubated for 10 to 60 mins by liquid scintillation counting analysis; type: cell-based; settings: COS-7

For `O=C(Oc1ccc([N+](=O)[O-])cc1)N1CCN(Cc2cccc(Oc3ccccc3)c2)CC1`, the inhibition [1] was “Active”.

For `O=C(N1CCC(C(c2ccc3c(c2)OCO3)c2ccc3c(c2)OCO3)CC1)n1cncn1`, the inhibition [2] was “Active”.

For `O=C(Nc1ccccc1)N1CCC(Cc2ccc3ccccc3n2)CC1`, the pIC50 ([3]; read-out: IC50) was 6.49, the IC50 ([3]; read-out: pIC50 (converted)) was 324 nM and the inhibition [4] was “inactive”. For the same molecule, the inhibition [5] was “Active”.
